From patent US11998619B2, “Compound, antiinflammatory drug comprising the compound and cyclooxygenase-2 inhibitor comprising the compound” (priority 2018, dated 2024)

Columns and labels:
[1] = tested on: COX-2; assay: Western blotting of COX-2 expression after LPS treatment; type: cell-based; conditions: Western blot, FIG. 4
[2] = tested on: MCAO-R stroke animal model; assay: Cerebral infarction in MCAO-R stroke animal model (TTC staining); type: in vivo, Sprague Dawley (SD) rats; conditions: 24 hours after reperfusion; FIG. 5B
[3] = tested on: COX-2; assay: Immunofluorescence of COX-2 in LPS-treated cells; conditions: FIG. 3
Experimental: Anti-inflammatory properties were evaluated based on in vitro experiments. Specifically, cells were treated with lipopolysaccharide (LPS) as an inflammation-inducing substance, thereby to induce an inflammatory reaction. […] Then, immunofluorescence images thereof were taken to identify COX-2 inhibitory ability thereof in the cells.
The green fluorescence indicates the presence of COX-2 which is induced by an inflammatory reaction in cells via treatment with LPS.

[4] = tested on: cyclooxygenase-2 (COX-2); assay: Western blot of COX-2 in tissue at the cerebral infarction site, MCAO-R model; type: in vivo, Sprague Dawley (SD) rats; conditions: FIG. 5C

Compound	COX-2 expression inhibition (COX-2 band) [1]	inhibition of cerebral infarction [2]	COX-2 inhibitory ability (green fluorescence, COX-2 positive cells) [3]	inhibition of COX-2 protein amount at cerebral infarction site [4]
O=C(O)c1cc(-c2ccc(F)cc2F)ccc1O [diflunisal]	do not achieve COX-2 inhibition effect	significantly inhibit the cerebral infarction	slightly lower than that in cells (LPS) treated with only LPS	exhibit inhibition of COX-2 activity
CC1=C(CC(=O)O)c2cc(F)ccc2/C1=C\c1ccc([S+](C)[O-])cc1 (stereo not shown) [sulindac]	has COX-2 inhibition ability		excellent COX-2 inhibition ability	
O=C(O)CCC(=O)c1ccc(-c2ccccc2)cc1 [fenbufen]	do not achieve COX-2 inhibition effect			
